Reference: US20080070883A1, “Use of LXR modulators for the prevention and treatment of skin aging” (Wyeth, priority 2006, published 2008)

Key:
LXRβ = assay: TaqMan quantitative PCR, LXRβ gene expression in NHEKs; format: cell-based, human; details: UV-exposed (8 J/m^2), 1 μM, FIG. 1B
TIMP1 [1] = assay: TaqMan quantitative PCR, TIMP1 gene expression in BJ human fibroblasts; format: cell-based; details: 1 μM, FIG. 9
Procedure: (§1) Add QIAzol® Lysis Reagent (QIAGEN Cat Number 79306) to the cells. Scrape the cells and place into a Falcon Polypropylene tube. Let stand at room temperature for 5 minutes. Add 1 ml of cells to microfuge tubes. Add 200 μl of chloroform, vortex, let stand for 5 minutes. Centrifuge at 4° C. for 15 minutes at 14,000 RPM. Add an equal volume of 70% ETOH (diluted with DEPC water). Add 600 μl to the RNeasy® column from the RNeasy® Mini Kit (QIAGEN Cat. Number 74106) centrifuge at 14,000 RPM at room temperature for 1 minute, discard flow-through. Add remainder of sample to the column, centrifuge, discard flow-through. Add 350 μl of RW1 buffer from the RNeasy® Mini Kit to the column, centrifuge at room temperature for 1 minute, discard flow-through. […]
(§2) TaqMan technology was used for quantitative PCR for the evaluation of MMP, TNFα, TIMP, IL-8, ASAH1, SPTLC1, SMPD1, LASS2, TXNRD1, GPX3, GSR, CAT, ABCA1, ABCA2, ABCA12, ABCA13, ABCG1, decorin, and LXRα/β gene expression in keratinocytes and fibroblasts. […]
(§3) Setup TaqMan with QuantiTect Multiplex PCR Kit (QIAGEN cat. Number 204543): 2× master mix: 25 μl; Single Tube Assay: 2.5 μl; Applied Biosystems Primers Probe set (part number 4308329)—18S forward primer: 0.25 μl, 18S reverse primer: 0.25 μl, 18S probe: 0.25 μl; water to 50 μl; 5 μl cDNA. […]

ABCA2 = assay: TaqMan quantitative PCR, ABCA2 gene expression in NHEKs; format: cell-based, human; details: 1 μM, FIG. 6A
Procedure: (§4) Add QIAzol® Lysis Reagent (QIAGEN Cat Number 79306) to the cells. Scrape the cells and place into a Falcon Polypropylene tube. Let stand at room temperature for 5 minutes. Add 1 ml of cells to microfuge tubes. Add 200 μl of chloroform, vortex, let stand for 5 minutes. Centrifuge at 4° C. for 15 minutes at 14,000 RPM. Add an equal volume of 70% ETOH (diluted with DEPC water). Add 600 μl to the RNeasy® column from the RNeasy® Mini Kit (QIAGEN Cat. Number 74106) centrifuge at 14,000 RPM at room temperature for 1 minute, discard flow-through. Add remainder of sample to the column, centrifuge, discard flow-through. Add 350 μl of RW1 buffer from the RNeasy® Mini Kit to the column, centrifuge at room temperature for 1 minute, discard flow-through. […] TaqMan technology was used for quantitative PCR for the evaluation of MMP, TNFα, TIMP, IL-8, ASAH1, SPTLC1, SMPD1, LASS2, TXNRD1, GPX3, GSR, CAT, ABCA1, ABCA2, ABCA12, ABCA13, ABCG1, decorin, and LXRα/β gene expression in keratinocytes and fibroblasts. […] Setup TaqMan with QuantiTect Multiplex PCR Kit (QIAGEN cat. Number 204543): 2× master mix: 25 μl; Single Tube Assay: 2.5 μl; Applied Biosystems Primers Probe set (part number 4308329)-18S forward primer: 0.25 μl, 18S reverse primer: 0.25 μl, 18S probe: 0.25 μl; water to 50 μl; 5 μl cDNA. […]

MMP3 [2] = assay: TaqMan quantitative PCR, MMP3 gene expression in BJ human fibroblasts; format: cell-based; details: 5 ng/ml rhTNFα, 1 μM, FIG. 8B
Procedure: as §1, §2, §3

MMP3 [3] = assay: TaqMan quantitative PCR, MMP3 gene expression in NHEKs; format: cell-based, human; details: UV-exposed (8 J/m^2), 1 μM, FIG. 3
Procedure: as §4

ABCA12 = assay: TaqMan quantitative PCR, ABCA12 gene expression in NHEKs; format: cell-based, human; details: 1 μM
Procedure: as §4

TIMP1 [4] = assay: TaqMan quantitative PCR, TIMP1 gene expression in NHEKs; format: cell-based, human; details: 1 μM, FIG. 4
Procedure: as §4

ABCA1 = assay: TaqMan quantitative PCR, ABCA1 gene expression in NHEKs; format: cell-based, human; details: 1 μM, FIG. 6A
Procedure: as §4

acid ceramidase (ASAH1) = assay: TaqMan quantitative PCR, ASAH1 gene expression in NHEKs; format: cell-based, human; details: 1 μM, FIG. 10A
Procedure: as §4

decorin = assay: TaqMan quantitative PCR, decorin gene expression in NHEKs; format: cell-based, human; details: UV-exposed (8 J/m^2), 1 μM, FIG. 7
Procedure: as §4

LXRα = assay: TaqMan quantitative PCR, LXRα gene expression in NHEKs; format: cell-based, human; details: 1 μM, FIG. 1A
[5] = test system: sphingomyelin phosphodiesterase (SMPD1); assay: TaqMan quantitative PCR, SMPD1 gene expression in NHEKs; format: cell-based, human; details: 1 μM, FIG. 10A
Procedure: as §4

TNFα = assay: TaqMan quantitative PCR, TNFα gene expression in NHEKs; format: cell-based, human; details: 1 μM, FIG. 2
Procedure: as §4

[6] = test system: ceramide synthase (LASS2); assay: TaqMan quantitative PCR, LASS2 gene expression in NHEKs; format: cell-based, human; details: 1 μM, FIG. 10A
Procedure: as §4

ABCA13 = assay: TaqMan quantitative PCR, ABCA13 gene expression in NHEKs; format: cell-based, human; details: 1 μM, FIG. 6A
Procedure: as §4

IL-8 = assay: TaqMan quantitative PCR, IL-8 gene expression in NHEKs; format: cell-based, human; details: UV-exposed (8 J/m^2), 1 μM, FIG. 5
Procedure: as §4

MMP1 = assay: TaqMan quantitative PCR, MMP1 gene expression in BJ human fibroblasts; format: cell-based; details: 5 ng/ml rhTNFα, 1 μM, FIG. 8A
Procedure: as §1, §2, §3

[7] = test system: thioredoxin reductase (TXNRD1); assay: TaqMan quantitative PCR, TXNRD1 gene expression in NHEKs; format: cell-based, human; details: 1 μM, FIG. 11
Procedure: as §4

catalase (CAT) = assay: TaqMan quantitative PCR, CAT gene expression in NHEKs; format: cell-based, human; details: 1 μM, FIG. 11
Procedure: as §4

ABCG1 = assay: TaqMan quantitative PCR, ABCG1 gene expression in NHEKs; format: cell-based, human; details: 1 μM, FIG. 6A
Procedure: as §4

[8] = test system: glutathione reductase (GSR); assay: TaqMan quantitative PCR, GSR gene expression in NHEKs; format: cell-based, human; details: 1 μM, FIG. 11
Procedure: as §4

[9] = test system: glutathione peroxidase (GPX3); assay: TaqMan quantitative PCR, GPX3 gene expression in NHEKs; format: cell-based, human; details: 1 μM, FIG. 11
Procedure: as §4

[10] = test system: serine palmitoyl transferase (SPTLC1); assay: TaqMan quantitative PCR, SPTLC1 gene expression in NHEKs; format: cell-based, human; details: 1 μM, FIG. 10A
Procedure: as §4

## O=S(=O)(c1ccccc1)N(CC(F)(F)F)c1ccc(C(O)(C(F)(F)F)C(F)(F)F)cc1 [T1317, N-(2,2,2-trifluoroethyl)-N-{4-[2,2,2-trifluoro-1-hydroxy-1-(trifluoromethyl)ethyl]phenyl}benzene sulfonamide]
LXRβ
  UV-mediated inhibition of LXRβ expression: reversed
TIMP1 [1]; TNFα-exposed (5 ng/ml rhTNFα)
  TIMP1 expression: induced
TIMP1 [1]; TNFα-unexposed
  TIMP1 expression: induced
ABCA2
  ABCA2 expression: induction
MMP3 [2]
  TNFα-induced MMP-3 expression: inhibition
MMP3 [3]
  UV-induced MMP-3 expression: inhibition
ABCA12; FIG. 6A
  ABCA12 expression: induction
ABCA12; UV-exposed (8 J/m^2), FIG. 6B
  UV-induced inhibition of ABCA12 expression: reversed
TIMP1 [4]; UV-exposed (8 J/m^2)
  TIMP1 expression: induced
TIMP1 [4]; UV-unexposed
  TIMP1 expression: induced
ABCA1
  ABCA1 expression: induction
Acid ceramidase (ASAH1)
  ASAH1 expression: induction
decorin
  UVB-mediated inhibition of decorin expression: reversed
LXRα; UV-exposed (8 J/m^2)
  expression of LXRα: induced
LXRα; UV-unexposed
  expression of LXRα: induced
[5]
  SMPD1 expression: induction
TNFα; UV-exposed (8 J/m^2)
  UV-induced expression of TNFα: reduced
TNFα; UV-unexposed
  basal expression of TNFα: reduced
[6]
  LASS2 expression: induction
ABCA13
  ABCA13 expression: induction
IL-8
  UV-induced expression of IL-8: reduced
MMP1
  TNFα-induced MMP1 expression: inhibition
[7]
  TXNRD1 expression: induction
Catalase (CAT)
  CAT expression: induction
ABCG1
  ABCG1 expression: induction
[8]
  GSR expression: induction
[9]
  GPX3 expression: induction
[10]
  SPTLC1 expression: induction
